Experiments:
Format in all cases: in vivo, mouse
Fmr1 KO2 mice [1] = test: Open field repetitive behavior: self grooming, Fmr1 KO2 mice; parameters: Effect on abnormal self grooming phenotype (FIG. 3): dose or concentration left out as unconfirmed
Text: (§1) Mutant fmr1 knockout (KO) mice recapitulate the Fragile X syndrome (FXS) phenotype and represent a preclinical model for assessment of putative drug treatments. In this study three different mice models of FXS were used: Fmr1 KO1 is the original Fmr1 knockout animal that carries an insertion in exon 5. See, e.g., Bakker C E, et al., The Dutch-Belgian Fragile X Consortium, Fmr1 knockout mice: A model to study fragile X mental retardation. Cell. 1994; 78:23-33 It is a protein null, although Fmr1 mRNA is still present. It is backcrossed to the C57/B16 strain. Subsequently, these mice were bred into different background strains, such as the FVB inbred mouse strain. Fmr1 KO2 is a null allele at Fmr1 generated by deletion of the promoter and first exon of Fmr1. See, Mientjes, E J et al., The generation of a conditional Fmr1 knock out mouse model to study Fmrp function in vivo. Neurobiology of Disease (2006) 21(3): 549-555. It is both protein and mRNA null. Backcrossed to the C57/B16 strain. Genotyping was accomplished using TransnetXY Automated Genotyping (http://www.transnetyx.com/). TRANSNETYX, INC., 8110 Cordova Rd. Suite 119, Cordova, TN 38016, USA.
(§2) The mice were housed in plastic cages (35×30×12 cm), 5 in each and habituated to the animal facilities for at least a week before test. The room temperature (21±2° C.), relative humidity (55±5%), a 12-h light-dark cycle (lights on 7 a.m.-7 p.m.) and air exchange (16 times per h) were automatically controlled. The animals had free access to commercial food pellets and water. Testing was conducted during the light phase. Testing was conducted on Fmr1 knockout mice and their wild-type (WT) littermates. Ten mice per treatment group, 14 weeks of age, were used for behavioral experiments. Experiments were conducted in line with the requirements of the UK Animals (Scientific Procedures) Act, 1986.
(§3) Oral dosing was performed by using 1.5-in. curved, 20-gauge, stainless steel feeding needles with a 2.25-mm ball (Braintree Scientific, Braintree, MA). Each gavage treatment was given in 0.5% methyl cellulose (Methyl Cellulose M0512, Sigma-Aldrich, St Louis, MO) used as vehicle with or without treatment compounds. The same veterinarian, blinded to the treatment groups, performed the procedure, and documented animal reactions to oral gavage. Reactions considered to indicate stress were defined as excessive struggling during gavage or abnormal behavior after gavage (labored breathing, frozen stance, exaggerated jumping, shuddering, and hunched posture).
(§4) For experiments all mice were tested once in the same apparatus. Prior to testing, mice not in the study were placed in the apparatus for some minutes before the experiment. The apparatus was then cleaned with moist and dry tissues before testing each mouse. The aim was to create a low but constant background mouse odor for all experimental subjects. All experiments were conducted with the experimenters blind to genotype and drug treatment during all testing and data analysis. Separate investigators prepared and coded dosing solutions, allocated the mice to the study treatment groups, dosed the animals, and collected the behavioral data. Data were analyzed by one-way analysis of variance (ANOVA) followed by post-hoc comparisons where appropriate using Tukey's Multiple Comparison Test. Data are represented as the mean and standard error of the mean (SEM).
2. Open Field Repetitive Behaviors (stereotypies: anticlockwise circling (aka counter revolutions) (CCW) and self grooming). Fmr1 KO2 mice display the autism-like phenotypes of repetitive behaviors like CCW, self grooming and stereotypy that typically involves behaviors such as head bobbing. […]

Fmr1 KO1 mice [2] = test: Tests of daily living (nesting), Fmr1 KO1 mice
Text: as §1, §2, §3, §4
3. Tests of daily living (Nesting): FIG. 11 is a bar graph illustrating nest building quality by wild-type mice administered 0.5% methyl cellulose vehicle, Fmr1 KO1 mice administered 0.5% methyl cellulose, Fmr1 KO1 mice administered (S)-3-amino-4-(difluoromethylenyl) cyclopent-1-ene-1-carboxylic acid 0.01 mg/kg, Fmr1 KO1 mice administered (S)-3-amino-4-(difluoromethylenyl) cyclopent-1-ene-1-carboxylic acid 0.05 mg/kg, and Fmr1 KO1 mice administered (S)-3-amino-4-(difluoromethylenyl) cyclopent-1-ene-1-carboxylic acid 0.1 mg/kg.

Fmr1 KO1 mice [3] = test: Open field hyperactivity (locomotor activity), Fmr1 KO1 mice
Text: as §1, §2, §3, §4
1. […]

Fmr1 KO2 mice [4] = test: Hyponeophagia (anxiety, latency to eat), Fmr1 KO2 mice
Text: as §1, §2, §3, §4
4. Hyponeophagia (inhibition of feeding) is used as a measure of anxiety which can be produced by a novel environment, particularly in rodents. […]

Fmr1 KO1 mice [5] = test: Open field repetitive behavior: counter revolutions (CCW), Fmr1 KO1 mice
Text: as §1, §2, §3, §4
2. Open Field Repetitive Behaviors (RB) (stereotypies: anticlockwise circling and self grooming). Fmr1 KO1 mice display the autism-like phenotypes of repetitive behaviors like counter revolutions (CCW), self grooming and stereotypy that typically involves behaviors such as head bobbing. […]

Fmr1 KO1 mice [6] = test: Open field repetitive behavior: stereotypy count, Fmr1 KO1 mice
Text: as §1, §2, §3, §4
2. Open Field Repetitive Behaviors (RB) (stereotypies: anticlockwise circling and self grooming). Fmr1 KO1 mice display the autism-like phenotypes of repetitive behaviors like counter revolutions (CCW), self grooming and stereotypy that typically involves behaviors such as head bobbing.
C. […]

N[C@H]1C=C(C(=O)O)CC1=C(F)F [Compound, (S)-3-Amino-4-(difluoromethylenyl)cyclopent-1-ene-1-carboxylic acid]
Effect on abnormal self grooming phenotype (FIG. 3) (Fmr1 KO2 mice [1]): rescued
Time spent grooming (self grooming), WT-Veh vs. KO2-Compound: Significant? (Fmr1 KO2 mice [1]; 0.01 mg/Kg PO QD seven days): Yes
Time spent grooming (self grooming), WT-Veh vs. KO2-Compound: Significant? (Fmr1 KO2 mice [1]; 0.05 mg/Kg PO QD seven days): No
Time spent grooming (self grooming), WT-Veh vs. KO2-Compound: Summary (Fmr1 KO2 mice [1]; 0.05 mg/Kg PO QD seven days): ns
Time spent grooming (self grooming), WT-Veh vs. KO2-Compound: Significant? (Fmr1 KO2 mice [1]; 0.1 mg/Kg PO QD seven days): No
Time spent grooming (self grooming), WT-Veh vs. KO2-Compound: Summary (Fmr1 KO2 mice [1]; 0.1 mg/Kg PO QD seven days): ns
Nesting, WT-Veh vs. KO1-Compound: Significant? (Fmr1 KO1 mice [2]; 0.01 mg/Kg PO QD seven days): Yes
Nesting, WT-Veh vs. KO1-Compound: Significant? (Fmr1 KO1 mice [2]; 0.05 mg/Kg PO QD seven days): No
Nesting, WT-Veh vs. KO1-Compound: Summary (Fmr1 KO1 mice [2]; 0.05 mg/Kg PO QD seven days): ns
Nesting, WT-Veh vs. KO1-Compound: Significant? (Fmr1 KO1 mice [2]; 0.1 mg/Kg PO QD seven days): No
Nesting, WT-Veh vs. KO1-Compound: Summary (Fmr1 KO1 mice [2]; 0.1 mg/Kg PO QD seven days): ns
Effect on nesting behavior (FIG. 11) (Fmr1 KO1 mice [2]; 0.05 and 0.1 mg/Kg): rescues poor nesting behavior
Open field (hyperactivity, total distance traveled), WT-Veh vs. KO1-Compound: Significant? (Fmr1 KO1 mice [3]; 0.01 mg/Kg PO QD seven days): Yes
Open field (hyperactivity, total distance traveled), WT-Veh vs. KO1-Compound: Significant? (Fmr1 KO1 mice [3]; 0.05 mg/Kg PO QD seven days): Yes
Open field (hyperactivity, total distance traveled), WT-Veh vs. KO1-Compound: Significant? (Fmr1 KO1 mice [3]; 0.1 mg/Kg PO QD seven days): No
Open field (hyperactivity, total distance traveled), WT-Veh vs. KO1-Compound: Summary (Fmr1 KO1 mice [3]; 0.1 mg/Kg PO QD seven days): ns
Hyponeophagia (latency to eat), WT-Veh vs. KO2-Compound: Significant? (Fmr1 KO2 mice [4]; 0.01 mg/Kg PO QD seven days): Yes
Hyponeophagia (latency to eat), WT-Veh vs. KO2-Compound: Significant? (Fmr1 KO2 mice [4]; 0.05 mg/Kg PO QD seven days): No
Hyponeophagia (latency to eat), WT-Veh vs. KO2-Compound: Summary (Fmr1 KO2 mice [4]; 0.05 mg/Kg PO QD seven days): ns
Hyponeophagia (latency to eat), WT-Veh vs. KO2-Compound: Significant? (Fmr1 KO2 mice [4]; 0.1 mg/Kg PO QD seven days): No
Hyponeophagia (latency to eat), WT-Veh vs. KO2-Compound: Summary (Fmr1 KO2 mice [4]; 0.1 mg/Kg PO QD seven days): ns
Effect on latency to eat in hyponeophagia test (FIG. 6) (Fmr1 KO2 mice [4]; 0.05 and 0.1 mg/Kg): decreasing their latency to eat to virtually control levels
Open field counter revolutions (CCW), WT-Veh vs. KO1-Compound: Significant? (Fmr1 KO1 mice [5]; 0.01 mg/Kg PO QD seven days): Yes
Open field counter revolutions (CCW), WT-Veh vs. KO1-Compound: Significant? (Fmr1 KO1 mice [5]; 0.05 mg/Kg PO QD seven days): No
Open field counter revolutions (CCW), WT-Veh vs. KO1-Compound: Summary (Fmr1 KO1 mice [5]; 0.05 mg/Kg PO QD seven days): ns
Open field counter revolutions (CCW), WT-Veh vs. KO1-Compound: Significant? (Fmr1 KO1 mice [5]; 0.1 mg/Kg PO QD seven days): No
Open field counter revolutions (CCW), WT-Veh vs. KO1-Compound: Summary (Fmr1 KO1 mice [5]; 0.1 mg/Kg PO QD seven days): ns
Effect on CCW repetitive behavior (FIG. 8) (Fmr1 KO1 mice [5]; 0.05 and 0.1 mg/Kg): reversed CCW repetitive behavior
Stereotypy count, WT-Veh vs. KO1-Compound: Significant? (Fmr1 KO1 mice [6]; 0.01 mg/Kg PO QD seven days): Yes
Stereotypy count, WT-Veh vs. KO1-Compound: Significant? (Fmr1 KO1 mice [6]; 0.05 mg/Kg PO QD seven days): No
Stereotypy count, WT-Veh vs. KO1-Compound: Summary (Fmr1 KO1 mice [6]; 0.05 mg/Kg PO QD seven days): ns
Stereotypy count, WT-Veh vs. KO1-Compound: Significant? (Fmr1 KO1 mice [6]; 0.1 mg/Kg PO QD seven days): No
Stereotypy count, WT-Veh vs. KO1-Compound: Summary (Fmr1 KO1 mice [6]; 0.1 mg/Kg PO QD seven days): ns
Effect on repetitive behaviors (stereotypical movements, FIG. 10) (Fmr1 KO1 mice [6]; 0.05 and 0.1 mg/Kg): decreased
